The results in this text go back to paper PMC13004581, “Physical Mechanisms of an Unconventional Green Fluorescent Protein Indicator for Chloride” (The Journal of Physical Chemistry. B, 2026).

In this experiment the target is T1, cgreGFP (Clytia gregaria, UniProt D7PM05).
T1 construct: gene GFP2; full-length, N-terminal polyhistidine tag kept (pET-28a(+)-TEV, NdeI/BamHI), codon-optimized gene, expressed in E. coli BL21(DE3)
T1 sequence (D7PM05 1-235): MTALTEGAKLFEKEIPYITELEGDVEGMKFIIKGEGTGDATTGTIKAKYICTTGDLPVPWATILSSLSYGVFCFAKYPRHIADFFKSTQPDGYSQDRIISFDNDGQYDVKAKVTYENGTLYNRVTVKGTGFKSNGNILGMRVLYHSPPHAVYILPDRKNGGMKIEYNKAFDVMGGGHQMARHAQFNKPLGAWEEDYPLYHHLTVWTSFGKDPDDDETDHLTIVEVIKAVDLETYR
Kind of experiment: fluorescence titration (ex […] nm, em […] nm). Type of experiment: binding. The following applies: read-out: K d (apparent).
As for `I` [iodide], the Kd was determined as 5.3 mM.
To `Cl` [chloride] belongs 25.2 ± 2 mM.
To `Br` [bromide] belongs 15.1 ± 1.2 mM.
As for `O=[N+]([O-])O` [nitrate], the figure is 10.7 ± 1.2 mM.
